Laboratory results from patent US20140023602A1, “EXTERNAL PREPARATION FOR SKIN CONTAINING A PHOSPHORYLATED SACCHARIDE” (EZAKI GLICO CO., LTD., priority 2005, published 2014).
“And” between values parts separate entries of the source, which are not always exact repeats. Equal entries are not always repeated.

Legend:
[1] = tested on: Normal human skin fibroblast cells; assay: Collagen production by human skin fibroblast, Sircol collagen assay; type: cell-based
Experimental: (§1) Normal human skin fibroblast cells were adjusted with 10% D-MEM (manufactured by Invitrogen) to a density of 2.5×10^4 cells per well, and preincubated on the 96-well plate for 24 hours. After removal of the medium, phosphorylated saccharide calcium salt adjusted to a concentration of 1% with 4% D-MEM was added to each well as a test sample, and then the mixture was cultured at 37° C. under 5% CO2 for 72 hours. After the completion of the culture, the amount of collagen in the medium was measured. The amount of collagen was measured by using a Sircol collagen assay Kit (manufactured by Biocolor Ltd.).
(§2) Normal human skin fibroblast cells were adjusted with 10% D-MEM (manufactured by Invitrogen) to a density of 2.5×10^4 cells per well, and preincubated on the 96-well plate for 24 hours. After removal of the medium, phosphorylated saccharide calcium salt adjusted to a concentration of 1% with 4% D-MEM and 0.0044% ascorbic acid as a test sample, or 0.0044% ascorbic acid as a control was added to each well, and then the mixture was cultured at 37° C. under 5% CO2 for 72 hours. After the completion of the culture, the amounts of collagen in the medium and on the cell surface were measured. The amount of collagen was measured by using a Sircol collagen assay Kit (manufactured by Biocolor Ltd.). The collagen on cell surface was measured after pepsin treatment.
as §1, with “potassium” for “calcium”, “then” for “then the mixture was”
as §2, with “phosphorylated saccharide potassium salt adjusted” for “phosphorylated saccharide calcium salt adjusted”, “acid as control was” for “acid as a control was”, “medium and the cell” for “medium and on the cell”

[2] = buffer; for Water retention ratio: Remaining ratio after 1 minute (%): 1 min
Experimental: 0.1% to 1% Aqueous phosphorylated saccharide mineral salt solutions were prepared. Ten μl/paper of the aqueous phosphorylated saccharide mineral salt solution was impregnated into a paper disc (8 mm) [manufactured by Advantech], and the water-retention effect was evaluated by measuring the remaining water over time for 10 minutes under a constant condition. For comparison, 0.1% solution of hyaluronic acid or 1% solution of glycerol, which are known as water retention component, were used. Distilled water was used as a control.

[3] = inorganic chloride as comparison, concentration not given

Q: With `O=C1O[C@H]([C@@H](O)CO)C(O)=C1O` [ascorbic acid] as the compound, how does the “amount of collagen in the medium” value ([1]; 0.0044% ascorbic acid alone, 72 hours) read?
A: 55.1 µg/mL and 44.1 µg/mL and 50.1 µg/mL and 52.1 µg/mL

Q: And the “amount of collagen on the cell surface” value ([1]; 0.0044% ascorbic acid alone, 72 hours, after pepsin treatment)?
A: 23.1 µg/mL and 23.0 µg/mL and 21.3 µg/mL

Q: What about the “increase of amount of collagen in the medium compared to control well” value ([1]; 0.0044% ascorbic acid in 4% FBS-DMEM, 72 hours) of the same compound?
A: 1.4 µg

Q: For `[Ca+2].[Cl-].[Cl-]` [calcium chloride], which “induction of collagen production (in words)” value [1, 3] is on record?
A: no induction of collagen production was observed

Q: For `OCC(O)CO` [glycerol], which “Water retention ratio: Remaining ratio after 1 minute (%)” value [2] is on record?
A: 98.84%

Q: And the “Water retention ratio: Remaining ratio after 10 minutes (%)” value [2]?
A: 88.23%

Q: With `[Cl-].[Cl-].[Mg+2]` [magnesium chloride] as the compound, how does the “induction of collagen production (in words)” value [1, 3] read?
A: no significant collagen production induction was observed

Q: For `[Cl-].[K+]` [potassium chloride], which “induction of the collagen production (amount of collagen)” value ([1]; inorganic chloride as comparison, concentration not given, 72 hours) is on record?
A: 2.2 µg/mL

Q: For hyaluronic acid, which “Water retention ratio: Remaining ratio after 1 minute (%)” value [2] is on record?
A: 98.84%

Q: And the “Water retention ratio: Remaining ratio after 10 minutes (%)” value [2]?
A: 83.73%
